Experimental findings from US11691969B2, “Pyridazinones as PARP7 inhibtors” (Ribon Therapeutics, Inc., priority 2019, dated 2023) are described below.

The structures appear in SMILES notation. Bounds are passed on as bounds.

In this test the target is PARP7 (Homo sapiens (Human), UniProt Q7Z3E1). Nature of the test: TR-FRET assay: displacement of biotinylated Probe A from the TIPARP active site (Enzymatic Assay for Inhibition of PARP7). In kind it is binding. Particulars: TIPARP 6 nM, Probe A 2 nM, 25° C. As for the experimental part: Example A. Enzymatic Assay for Inhibition of PARP7
Displacement of Probe A, a biotinylated probe binding to the TIPARP active site, was measured using a time-resolved fluorescence energy transfer (TR-FRET) assay. 20 nL of a dose response curve of each test compound was spotted in black 384-well polystyrene proxiplates (Perkin Elmer) using a Mosquito (TTP Labtech). Reactions were performed in a 8 μl volume by adding 6 μL of TIPARP and Probe A in assay buffer (20 mM HEPES pH=8, 100 mM NaCl, 0.1% bovine serum albumin, 2 mM DTT and 0.002% Tween20), incubating with test compound at 25° C. for 30 min, then adding 2 μL of ULight-anti 6×His and LANCE Eu-W1024 labeled streptavidin (Perkin Elmer). The final concentrations of TIPARP and Probe A were 6 nM and 2 nM, respectively. The final concentration of ULight-anti 6×His and LANCE Eu-W1024 labeled streptavidin were 4 nM and 0.25 nM, respectively. Reactions were incubated at 25° C. for an additional 30 min, then read on an Envision platereader equipped with a LANCE/DELFIA top mirror (Perkin Elmer) using excitation of 320 nm and emission of 615 nm and […] with a […]. The ratio of the 665/615 nm emission were calculated for each well to determine the amount of complex of TIPARP and Probe Ain each well. Control wells containing a negative control of 0.25% DMSO vehicle or a positive control of 100 μM 5-(5-(piperidin-4-yloxy)isoindolin-2-yl)-4-(trifluoromethyl)pyridazin-3(2H)-one were used to calculate the % inhibition as described below:
[formula] where TRFcmpd is the TR-FRET ratio from the compound treated well, TRFmin is the TR-FRET ratio from the 5-(5-(piperidin-4-yloxy)isoindolin-2-yl)-4-(trifluoromethyl)pyridazin-3(2H)-one—treated positive control well and TRFmax is the TR-FRET ratio from the DMSO-treated negative control well. The % inhibition values were plotted as a function of compound concentration and the following 4-parameter fit was applied to derive the IC50 values:
[formula] where top and bottom are normally allowed to float, but may be fixed at 100 or 0 respectively in a 3-parameter fit. The Hill Coefficient is normally allowed to float but may also be fixed at 1 in a 3-parameter fit. Y is the % inhibition and X is the compound concentration. Synthesis of Probe A

Chain of PARP7 (Q7Z3E1 whole entry): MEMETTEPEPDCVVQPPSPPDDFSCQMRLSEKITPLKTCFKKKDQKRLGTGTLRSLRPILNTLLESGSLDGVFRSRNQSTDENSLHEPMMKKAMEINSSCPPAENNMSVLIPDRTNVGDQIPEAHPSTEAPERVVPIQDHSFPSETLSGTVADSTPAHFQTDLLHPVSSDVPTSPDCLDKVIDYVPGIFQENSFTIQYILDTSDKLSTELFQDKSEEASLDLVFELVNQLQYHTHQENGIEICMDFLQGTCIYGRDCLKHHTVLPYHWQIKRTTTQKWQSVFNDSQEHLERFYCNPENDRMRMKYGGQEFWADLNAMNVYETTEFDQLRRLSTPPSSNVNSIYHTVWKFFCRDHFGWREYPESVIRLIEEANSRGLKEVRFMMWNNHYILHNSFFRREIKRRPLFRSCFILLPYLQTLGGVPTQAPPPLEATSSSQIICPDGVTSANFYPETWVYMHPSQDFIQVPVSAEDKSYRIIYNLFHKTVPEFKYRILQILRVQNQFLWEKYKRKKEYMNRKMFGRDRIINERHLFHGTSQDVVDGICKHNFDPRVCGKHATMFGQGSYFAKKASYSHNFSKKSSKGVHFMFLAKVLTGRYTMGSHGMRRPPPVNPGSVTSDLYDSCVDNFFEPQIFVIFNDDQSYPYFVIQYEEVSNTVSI

As to `COC[C@@H](CO[C@H]1CCN(C2CCN(c3cnc(C(F)(F)F)cn3)CC2)C1=O)Nc1cn[nH]c(=O)c1C(F)(F)F` [Example 18A, 5-(((S)-1-methoxy-3-(((S)-2-oxo-1-(1-(5-(trifluoromethyl)pyrazin-2-yl)piperidin-4-yl)pyrrolidin-3-yl)oxy)propan-2-yl)amino)-4-(trifluoromethyl)pyridazin-3(2H)-one], the IC50 (commonly the concentration that inhibits the measured activity by half) lay in the range of 100 to 1000 nM.

In turn, `COC[C@@H](CO[C@@H]1CCN(C2CCN(c3cnc(C(F)(F)F)cn3)CC2)C1=O)Nc1cn[nH]c(=O)c1C(F)(F)F` [Example 18B] gave an IC50 of less than 100 nM.

As to `COC[C@@H](CO[C@H]1CCN(C2CCN(c3ncc(C(F)(F)F)cn3)CC2)C1=O)Nc1cn[nH]c(=O)c1C(F)(F)F` [Example 19A, 5-(((S)-1-methoxy-3-(((S)-2-oxo-1-(1-(5-(trifluoromethyl)pyrimidin-2-yl)piperidin-4-yl)pyrrolidin-3-yl)oxy)propan-2-yl)amino)-4-(trifluoromethyl)pyridazin-3(2H)-one], the IC50 was in the range of 100 to 1000 nM.

The compound `COC[C@@H](CO[C@@H]1CCN(C2CCN(c3ncc(C(F)(F)F)cn3)CC2)C1=O)Nc1cn[nH]c(=O)c1C(F)(F)F` [Example 19B, 5-(((S)-1-methoxy-3-(((R)-2-oxo-1-(1-(5-(trifluoromethyl)pyrimidin-2-yl)piperidin-4-yl)pyrrolidin-3-yl)oxy)propan-2-yl)amino)-4-(trifluoromethyl)pyridazin-3(2H)-one] came in with an IC50 of less than 100 nM.

With `C[C@@H](CO[C@H]1CCN(C2CCN(c3ncc(C(F)(F)F)cn3)CC2)C1=O)Oc1cn[nH]c(=O)c1C(F)(F)F` [Example 20A, 5-(((S)-1-(((S)-2-oxo-1-(1-(5-(trifluoromethyl)pyrimidin-2-yl)piperidin-4-yl)pyrrolidin-3-yl)oxy)propan-2-yl)oxy)-4-(trifluoromethyl)pyridazin-3(2H)-one], the IC50 was less than 100 nM.

The compound `C[C@@H](CO[C@@H]1CCN(C2CCN(c3ncc(C(F)(F)F)cn3)CC2)C1=O)Oc1cn[nH]c(=O)c1C(F)(F)F` [Example 20B, 5-(((S)-1-(((R)-2-oxo-1-(1-(5-(trifluoromethyl)pyrimidin-2-yl)piperidin-4-yl)pyrrolidin-3-yl)oxy)propan-2-yl)oxy)-4-(trifluoromethyl)pyridazin-3(2H)-one] came in with a 50% inhibitory concentration (IC50) of less than 100 nM.

With `C[C@@H](COC1CCN(C2CCN(c3ncc(C(F)(F)F)cn3)CC2)C1)Nc1cn[nH]c(=O)c1C(F)(F)F` (stereo partly drawn) [Example 21, 4-(trifluoromethyl)-5-(((2S)-1-((1-(1-(5-(trifluoromethyl)pyrimidin-2-yl)piperidin-4-yl)pyrrolidin-3-yl)oxy)propan-2-yl)amino)pyridazin-3(2H)-one], the IC50 was in the range of 100 to 1000 nM.

`C[C@@H](CO[C@H]1CCN(C2CCN(c3cnc(C(F)F)cn3)CC2)C1=O)Nc1cn[nH]c(=O)c1C(F)(F)F` [Example 22A, 5-(((S)-1-(((S)-1-(1-(5-(difluoromethyl)pyrazin-2-yl)piperidin-4-yl)-2-oxopyrrolidin-3-yl)oxy)propan-2-yl)amino)-4-(trifluoromethyl)pyridazin-3(2H)-one] gave an IC50 of 100 to 1000 nM.

As for `C[C@@H](CO[C@@H]1CCN(C2CCN(c3cnc(C(F)F)cn3)CC2)C1=O)Nc1cn[nH]c(=O)c1C(F)(F)F` [Example 22B, 5-(((S)-1-(((R)-1-(1-(5-(difluoromethyl)pyrazin-2-yl)piperidin-4-yl)-2-oxopyrrolidin-3-yl)oxy)propan-2-yl)amino)-4-(trifluoromethyl)pyridazin-3(2H)-one], the half-inhibitory concentration (IC50) was less than 100 nM.

As for `C[C@@H](COCC(=O)N(C)C1CCN(c2ncc(C(F)(F)F)cn2)CC1)Oc1cn[nH]c(=O)c1C(F)(F)F` [Example 25, (S)-N-methyl-2-(2-((6-oxo-5-(trifluoromethyl)-1,6-dihydropyridazin-4-yl)oxy)propoxy)-N-(1-(5-(trifluoromethyl)pyrimidin-2-yl)piperidin-4-yl)acetamide], the IC50 is less than 100 nM.
